# Measured values: patent publication US10077241B2 (Janssen Pharmaceutica NV, priority 2014, dated 2018)
# pEC50: −log10 of the molar value.
# Experiments:
# [1] = target: T1, TGR5 (NCI-H716 cell line) (Homo sapiens, UniProt Q8TDU6); assay: NCI-H716 cAMP Agonist EC50 Determination
# T1 sequence (Q8TDU6 1-330): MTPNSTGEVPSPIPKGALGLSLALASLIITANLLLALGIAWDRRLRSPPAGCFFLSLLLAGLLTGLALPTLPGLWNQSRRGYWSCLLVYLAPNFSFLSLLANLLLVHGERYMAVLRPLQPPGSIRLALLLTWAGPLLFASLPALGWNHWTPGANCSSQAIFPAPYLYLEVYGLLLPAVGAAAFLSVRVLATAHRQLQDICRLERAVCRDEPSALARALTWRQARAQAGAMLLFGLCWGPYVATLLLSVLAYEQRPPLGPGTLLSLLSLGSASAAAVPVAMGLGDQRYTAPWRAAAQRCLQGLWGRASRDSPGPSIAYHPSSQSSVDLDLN
# Experimental: Cells were cultured in suspension using RPM containing: 10% HI FBS, and 1× Penn/Strep and were cryostored (1E7 cells/vial in 5% DMSO).
# A Normalized signal (NS) is generated by the Envision for each well ((Read 1/Read 2)×10,000).
# The data from the Envision were imported to an Excel worksheet. nM cAMP is calculated for each well from the cAMP standard curves located on each plate by first calculating the slope and deriving the intercept (b).
# [formula] [formula] [formula] EC50 values were determined from a 4-point fit (Hill equation) of a single 11-point compound dosing.
# TGR5 (STC1 cell line) = target: T2, TGR5 (STC1 cell line) (Mus musculus, UniProt Q80SS6); assay: STC1 cAMP Agonist EC50 Determination
# T2 sequence (Q80SS6 1-329): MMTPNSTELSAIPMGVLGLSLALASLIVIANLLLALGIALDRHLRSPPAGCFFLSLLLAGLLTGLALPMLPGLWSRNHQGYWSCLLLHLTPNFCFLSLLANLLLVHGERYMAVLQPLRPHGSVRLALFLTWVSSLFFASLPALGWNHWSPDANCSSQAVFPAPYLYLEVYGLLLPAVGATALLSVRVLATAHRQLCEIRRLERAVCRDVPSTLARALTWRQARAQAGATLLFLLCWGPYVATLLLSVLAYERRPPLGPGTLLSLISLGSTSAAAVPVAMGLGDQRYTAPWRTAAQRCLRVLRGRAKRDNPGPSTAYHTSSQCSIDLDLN
Structure (SMILES),pEC50 [1],pEC50 (TGR5 (STC1 cell line))
"COc1cc(C2CCCc3nc(SCc4c(F)cc(C#N)cc4F)n(-c4ccc(F)cc4)c32)ccc1F (stereo not shown) [Example 73, 3,5-difluoro-4-(((7-(4-fluoro-3-methoxyphenyl)-1-(4-fluorophenyl)-4,5,6,7-tetrahydro-1H-benzo[d]imidazol-2-yl)thio)methyl)benzonitrile]",4.32,5.82
"COc1ccc(C2(C)CCCc3nc(SCc4c(Cl)cccc4Cl)n(-c4ccc(F)cc4)c32)cc1OC (stereo not shown) [Example 114, 2-((2,6-dichlorobenzyl)thio)-7-(3,4-dimethoxyphenyl)-1-(4-fluorophenyl)-7-methyl-4,5,6,7-tetrahydro-1H-benzo[d]imidazole]",4.59,5.79
"C=C1COC(c2ccc(Cl)c(OC)c2)c2c1nc(SCc1c(F)cccc1Cl)n2-c1ccc(F)cc1 (stereo not shown) [Example 137, 4-(4-chloro-3-methoxyphenyl)-2-((2-chloro-6-fluorobenzyl)thio)-3-(4-fluorophenyl)-7-methylene-3,4,6,7-tetrahydropyrano[3,4-d]imidazole]",< 4.30,6.06
"COc1cc(C2CCCc3nc(SCc4c(F)c[n+]([O-])cc4F)n(-c4ccc(F)cc4)c32)ccc1Cl (stereo not shown) [Example 59, 4-((7-(4-chloro-3-methoxyphenyl)-1-(4-fluorophenyl)-4,5,6,7-tetrahydro-1H-benzo[d]imidazol-2-ylthio)methyl)-3,5-difluoropyridine 1-oxide trifluoroacetic acid]",< 4.30,5.69
"COc1cc(C2CCCc3nc(SCc4c(F)cccc4Cl)n(-c4cc(F)c(F)c(F)c4)c32)ccc1Cl (stereo not shown) [Example 10, 7-(4-chloro-3-methoxyphenyl)-2-((2-chloro-6-fluorobenzyl)thio)-1-(3,4,5-trifluorophenyl)-4,5,6,7-tetrahydro-1H-benzo[d]imidazole]",< 4.30,6.10
"COc1cc(C2CCCc3nc(SCc4c(F)cccc4C(F)(F)F)n(-c4ccc(F)cc4)c32)ccc1Cl (stereo not shown) [Example 15, 7-(4-chloro-3-methoxyphenyl)-2-([[2-fluoro-6-(trifluoromethyl)phenyl]methyl]sulfanyl)-1-(4-fluorophenyl)-4,5,6,7-tetrahydro-1H-1,3-benzodiazole]",< 4.30,4.88
"COc1cc(C2CCCc3nc(SCc4c(F)ccc(F)c4Cl)n(-c4ccc(F)cc4)c32)ccc1Cl (stereo not shown) [Example 20, 2-[[(2-chloro-3,6-difluorophenyl)methyl]sulfanyl]-7-(4-chloro-3-methoxyphenyl)-1-(4-fluorophenyl)-4,5,6,7-tetrahydro-1H-1,3-benzodiazole]",< 4.30,6.29
"COCCOCCOCCOCCNC(=O)c1cc(F)c(CSc2nc3c(n2-c2ccc(F)cc2)C(c2ccc(F)c(OC)c2)CCC3)c(F)c1 (stereo not shown) [Example 75, 3,5-difluoro-4-(((7-(4-fluoro-3-methoxyphenyl)-1-(4-fluorophenyl)-4,5,6,7-tetrahydro-1H-benzo[d]imidazol-2-yl)thio)methyl)-N-(2,5,8,11-tetraoxatridecan-13-yl)benzamide]",< 4.30,5.56
"COc1cc(C2CCCc3nc(SCc4c(F)cc(OCCOCCOCCOCCO)cc4F)n(-c4ccc(F)cc4)c32)ccc1Cl (stereo not shown) [Example 23, 1-[4-([[7-(4-chloro-3-methoxyphenyl)-1-(4-fluorophenyl)-4,5,6,7-tetrahydro-1H-1,3-benzodiazol-2-yl]sulfanyl]methyl)-3,5-difluorophenyl]-1,4,7,10-tetraoxadodecan-12-ol]",< 4.30,6.18
"COCCOCCOCCOCCNC(=O)c1cc(F)c(CSc2nc3c(n2-c2ccc(F)cc2)C(c2ccc(OC)c(OC)c2)CCC3)c(F)c1 (stereo not shown) [Example 66, 4-(((7-(3,4-dimethoxyphenyl)-1-(4-fluorophenyl)-4,5,6,7-tetrahydro-1H-benzo[d]imidazol-2-yl)thio)methyl)-3,5-difluoro-N-(2,5,8,11-tetraoxatridecan-13-yl)benzamide]",5.62,6.05
"COc1cc(C2(C)CCCc3nc(SCc4c(F)cc(-c5nn[nH]n5)cc4F)n(-c4ccc(F)cc4)c32)ccc1Cl (stereo not shown) [Example 90, 7-(4-chloro-3-methoxyphenyl)-2-(2,6-difluoro-4-(2H-tetrazol-5-yl)benzylthio)-1-(4-fluorophenyl)-7-methyl-4,5,6,7-tetrahydro-1H-benzo[d]imidazole trifluoroacetic acid]",< 4.30,5.41
"CNC(=O)c1cc(F)c(CSc2nc3c(n2-c2ccc(F)cc2)C(C)(c2ccc(Cl)c(OC)c2)CCC3)c(F)c1 (stereo not shown) [Example 91, 4-((7-(4-chloro-3-methoxyphenyl)-1-(4-fluorophenyl)-7-methyl-4,5,6,7-tetrahydro-1H-benzo[d]imidazol-2-ylthio)methyl)-3,5-difluoro-N-methylbenzamide trifluoroacetic acid]",< 4.30,6.64
"COc1cc(C2(C)CCCc3nc(SCc4c(F)ccc(O)c4F)n(-c4ccc(F)cc4)c32)ccc1Cl (stereo not shown) [Example 95, 3-((7-(4-chloro-3-methoxyphenyl)-1-(4-fluorophenyl)-7-methyl-4,5,6,7-tetrahydro-1H-benzo[d]imidazol-2-ylthio)methyl)-2,4-difluorophenol trifluoroacetic acid]",4.90,6.43
"COc1cc(C2CCCc3nc(SCc4c(F)cncc4Cl)n(-c4ccc(F)cc4)c32)ccc1Cl (stereo not shown) [Example 55, 7-(4-chloro-3-methoxyphenyl)-2-[[(3-chloro-5-fluoropyridin-4-yl)methyl]sulfanyl]-1-(4-fluorophenyl)-4,5,6,7-tetrahydro-1H-1,3-benzodiazole bis(trifluoroacetic acid)]",< 4.30,6.74
"C=C1COC(c2ccc(F)c(OC)c2)c2c1nc(SCc1c(F)cccc1Cl)n2-c1ccc(F)cc1 (stereo not shown) [Example 138, 4-(4-Fluoro-3-methoxyphenyl)-2-((2-chloro-6-fluorobenzyl)thio)-3-(4-fluorophenyl)-7-methylene-3,4,6,7-tetrahydropyrano[3,4-d]imidazole]",< 4.30,5.49
"CCOC(=O)CCc1cc(F)c(CSc2nc3c(n2-c2ccc(F)cc2)C(c2ccc(Cl)c(OC)c2)CCC3)c(F)c1 (stereo not shown) [Example 40, Ethyl 3-(4-((7-(4-chloro-3-methoxyphenyl)-1-(4-fluorophenyl)-4,5,6,7-tetrahydro-1H-benzo[d]imidazol-2-ylthio)methyl)-3,5-difluorophenyl)propanoate trifluoroacetic acid]",< 4.30,5.87
"COc1cc(C2(C)CCCc3nc(SCc4c(F)cc(C(=O)NCCOCCOCCOCCO)cc4F)n(-c4ccc(F)cc4)c32)ccc1F (stereo not shown) [Example 123, 3,5-difluoro-4-(((7-(4-fluoro-3-methoxyphenyl)-1-(4-fluorophenyl)-7-methyl-4,5,6,7-tetrahydro-1H-benzo[d]imidazol-2-yl)thio)methyl)-N-(2-(2-(2-(2-hydroxyethoxy)ethoxy)ethoxy)ethyl) benzamide]",4.77,7.30
"COc1cc(C2CCCc3nc(SCc4ncccn4)n(-c4ccc(F)cc4)c32)ccc1Cl (stereo not shown) [Example 57, 7-(4-chloro-3-methoxyphenyl)-1-(4-fluorophenyl)-2-[(pyrimidin-2-ylmethyl)sulfanyl]-4,5,6,7-tetrahydro-1H-1,3-benzodiazole trifluoroacetic acid]",< 4.30,6.19
"COc1ccc(C2(C)CCCc3nc(SCc4c(F)cc(CCN(C)C)cc4F)n(-c4ccc(F)cc4)c32)cc1OC (stereo not shown) [Example 111, 2-(4-(((7-(3,4-dimethoxyphenyl)-1-(4-fluorophenyl)-7-methyl-4,5,6,7-tetrahydro-1H-benzo[d]imidazol-2-yl)thio)methyl)-3,5-difluorophenyl)-N,N-dimethylethanamine]",5.85,6.70
"COc1cc(C2(C)CCCc3nc(SCc4c(F)cc(C(=O)NCCOCCOCCOCCO)cc4F)n(-c4ccc(F)cc4)c32)ccc1Cl (stereo not shown) [Example 84, 4-((7-(4-chloro-3-methoxyphenyl)-1-(4-fluorophenyl)-7-methyl-4,5,6,7-tetrahydro-1H-benzo[d]imidazol-2-ylthio)methyl)-3,5-difluoro-N-(2-(2-(2-(2-hydroxyethoxy)ethoxy)ethoxy)ethyl)benzamide trifluoroacetic acid]",4.41,6.47
COc1cc(C2(C)CCCc3nc(SCc4ccncc4)n(-c4ccc(F)cc4)c32)ccc1Cl (stereo not shown) [Example 88],< 4.30,5.32
"COc1cc(C2(C)CCCc3nc(SCc4c(F)cncc4F)n(-c4ccc(F)cc4)c32)ccc1Cl (stereo not shown) [Example 98, 2-((3,5-difluoropyridin-4-yl)methylthio)-7-(4-chloro-3-methoxyphenyl)-1-(4-fluorophenyl)-4,5,6,7-tetrahydro-7-methyl-1H-benzo[d]imidazole trifluoroacetic acid]",4.61,6.80
"COc1ccc(C2(C)CCCc3nc(SCc4ccccc4)n(-c4ccc(F)cc4)c32)cc1OC (stereo not shown) [Example 99, 2-(benzylthio)-7-(3,4-dimethoxyphenyl)-1-(4-fluorophenyl)-7-methyl-4,5,6,7-tetrahydro-1H-benzo[d]imidazole]",4.48,5.62
